Measurements taken from patent publication US12037324B2, “Biarylmethyl heterocycles” (Université de Montréal, priority 2016, dated 2024).
Where two headings read alike, the source gives them in different places.

How the values were obtained:
[1] = molecular target: T1, AGTR1 (Homo sapiens, UniProt P30556); assay: DiscoveRx β-arrestin2 recruitment assay (enzyme complementation, Pathunter CHO-K1 AGTR1 β-arrestin cell line); type: cell-based; conditions: DiscoveRx β-arrestin2 recruitment; for DiscoveRx β-arrestin2 Ymax (%): maximal response
T1 construct: host or cells: Pathunter CHO-K1 AGTR1 β-arrestin cell line (CHO-K1)
T1 sequence (P30556 1-359): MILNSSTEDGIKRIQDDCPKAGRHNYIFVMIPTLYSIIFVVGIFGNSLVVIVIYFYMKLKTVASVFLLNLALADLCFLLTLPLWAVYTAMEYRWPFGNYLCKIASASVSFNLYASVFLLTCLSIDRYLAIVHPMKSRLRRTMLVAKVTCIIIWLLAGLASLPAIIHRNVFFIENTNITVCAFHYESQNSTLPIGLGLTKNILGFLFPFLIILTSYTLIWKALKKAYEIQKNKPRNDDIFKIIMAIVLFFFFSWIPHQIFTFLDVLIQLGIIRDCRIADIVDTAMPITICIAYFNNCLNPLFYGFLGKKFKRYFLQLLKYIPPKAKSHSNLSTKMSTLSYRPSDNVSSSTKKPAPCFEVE
Outline: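 Chemiluminescent enzyme-complementation read-out of β-arrestin2 recruitment to AGTR1 in engineered CHO-K1 cells after 90 min compound exposure at 37° C. Values are 4-parameter logistic EC50s in agonist mode, IC50s in antagonist mode, with efficacy relative to the maximal All response.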

[2] = molecular target: T1, AGTR1; assay: DiscoveRx IP1 accumulation assay (HTRF), agonist mode, Pathunter CHO-K1 AGTR1 β-arrestin cell line; type: cell-based; conditions: for EC50: read-out: IP-1 EC50
Outline: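 Agonist mode in CHO-K1 AGTR1 β-arrestin cells plated 14-16 h before; compounds at varying concentrations for 90 min at 37° C, IP1 accumulation read by HTRF (D2-conjugate and anti-IP1 cryptate, 20 min room temperature). EC50 from 4-parameter logistic fit; activity given as percentage of maximal AII effect.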

[3] = molecular target: T2, hAT1R (Homo sapiens, UniProt P30556); assay: cell-based
T2 sequence (P30556 1-359): T1 sequence (P30556 1-359)

[4] = molecular target: T2, hAT1R; assay: cell-based; conditions: agonist mode; for EC50: read-out: BRET P63 EC50
[5] = section of the 42nd table ending at r951, example numbering restarts after the DiscoveRx section, read-out: β-arrestin2 EC50
[6] = Low AT1R Expression, read-out: BRET β-Arrestin2 Low AT1R Expression EC50

Compound | EC50 [1] [nM] | DiscoveRx β-arrestin2 Ymax (%) [1] [%] | IP-1 Ymax (%) [2] [%] | EC50 [2] [nM] | EC50 [3, 5] [nM] | BRET P63 Ymax [4] [%] | EC50 [4] [nM] | BRET β-Arrestin2 Low AT1R Expression Ymax (%) ([3]; Low AT1R Expression) | EC50 [3, 6] [nM]
CCCC1=NC2(CCOC2)C(=O)N1Cc1ccc(-c2cc(-c3cccc(C)c3)ccc2-c2nnn[nH]2)cc1 (single isomer, unassigned) [Example 159] | 51.4 | 44.0 | 11.3 | 78.1 | 40.3 | 11.5 | 79.3 |  | 
CCc1nc2c(C)cc(C)nc2n1Cc1cnc(-c2cc(-c3ccccc3)ccc2-c2nnn[nH]2)cn1 [Example 187, 3-((5-(4-(1H-tetrazol-5-yl)-[1,1′-biphenyl]-3-yl)pyrazin-2-yl)methyl)-2-ethyl-5,7-dimethyl-3H-imidazo[4,5-b]pyridine] | 44.4 | 34.0 | 16.1 | 104 | 181 | 8.4 | 168 |  | 
CCc1nc2c(C)cc(C)nc2n1Cc1ccc(-c2cc(-c3ccc(F)cn3)ccc2-c2nn[nH]n2)cc1 [Example 65] | 27.3 | 31.0 | 12.2 | 62.7 |  | 13.1 | 17.2 | 54.5 | 23.6
CCC1=NC2(CCOC2)C(=O)N1Cc1ccc(-c2cc(-c3cccc(C)c3)ccc2-c2nnn[nH]2)cc1 (single isomer, unassigned) [Example 169] | 111 | 50.1 | 14.5 | 484 | 271 | 13.3 | 127 |  | 
CCc1nc2c(C)cc(C)nc2n1Cc1ccc(-c2cc(-c3ccc(OC)cc3)ccc2-c2nn[nH]n2)cc1 [Example 14] | 10.3 | 20.8 | 8.1 | 14.5 |  |  | > 10000 |  | > 10000
CCCCC1=NC2(CCOC2)C(=O)N1Cc1ccc(-c2cc(-c3cc(C)ccn3)ccc2-c2nnn[nH]2)cc1 (single isomer, unassigned) [Example 154] | 14.1 | 48.7 | 14.4 | 40.6 | 63.9 | 25.3 | 57.7 |  | 
CC1=NC2(CCCC2)C(=O)N1Cc1ccc(-c2cc(-c3cc(C)ccn3)ccc2-c2nn[nH]n2)cc1 [Example 111, 2-methyl-3-((5′-(4-methylpyridin-2-yl)-2′-(2H-tetrazol-5-yl)-[1,1′-biphenyl]-4-yl)methyl)-1,3-diazaspiro[4.4]non-1-en-4-one] | 6.4 | 63.3 | 15.7 | 12.6 |  | 24.1 | 22.3 | 80.7 | 14.7
CCCC1=NC2(CCOC2)C(=O)N1Cc1ccc(-c2cc(-c3cccc(C)c3)ccc2-c2nnn[nH]2)cc1 (single isomer, unassigned) [Example 163] | 69.2 | 34.6 | 7.8 | 181 | 91.8 |  | > 10000 |  | 
CCc1nc2c(C)cc(C)nc2n1Cc1ccc(-c2cc(-n3nnc4ccccc43)ccc2-c2nnn[nH]2)cc1 [Example 233, 1-(4′-((2-Ethyl-5,7-dimethyl-3H-imidazo[4,5-b]pyridin-3-yl)methyl)-6-(1H-tetrazol-5-yl)-[1,1′-biphenyl]-3-yl)-1H-benzo[d][1,2,3]triazole] | 10.5 | 59.2 | 10.2 | 31.3 | 9.7 | 17.9 | 13.2 |  | 
CCCC1=NC2(CCOC2)C(=O)N1Cc1ccc(-c2cc(-c3ccccc3O)ccc2-c2nnn[nH]2)cc1 (single isomer, unassigned) [Example 160] | 87.8 | 50.2 | 15.8 | 132 | 98.5 | 18.6 | 79.7 |  | 
CCCC1=NC2(CCOC2)C(=O)N1Cc1ccc(-c2cc(-c3ccccc3F)ccc2-c2nnn[nH]2)cc1 (single isomer, unassigned) [Example 161] | 88.5 | 40.7 | 14.2 | 203 | 46.3 | 10.9 | 49.6 |  | 
CCc1nc2c(C)cc(C)nc2n1Cc1ccc(-c2cc(C3CCCC3)ccc2-c2nn[nH]n2)cc1 [Example 80, 3-((5′-cyclopentyl-2′-(2H-tetrazol-5-yl)-[1,1′-biphenyl]-4-yl)methyl)-2-ethyl-5,7-dimethyl-3H-imidazo[4,5-b]pyridine] | 73.4 | 33.5 | 14.6 | 425 |  |  | > 100000 | 29.8 | 30.4
COc1ccnc(-c2ccc(-c3nn[nH]n3)c(-c3ccc(CN4C(=O)C5(CCCC5)N=C4C4CC4)cc3)c2)c1 [Example 119, 2-cyclopropyl-3-((5′-(4-methoxypyridin-2-yl)-2′-(2H-tetrazol-5-yl)-[1,1′-biphenyl]-4-yl)methyl)-1,3-diazaspiro[4.4]non-1-en-4-one] | 47.5 | 51.4 | 18.4 | 108 |  | 21.8 | 40.5 | 63.9 | 53.9
CCc1nc2c(C)cc(C)nc2n1Cc1ccc(-c2cc(-c3cc(C)ccn3)ccc2C(=O)O)cc1 [Example 193] | 52.2 | 60.7 | 25.0 | 132 | 133 | 29.3 | 160 |  | 
CCC1=NC2(CCOC2)C(=O)N1Cc1ccc(-c2cc(-c3ccccc3O)ccc2-c2nnn[nH]2)cc1 (single isomer, unassigned) [Example 170] | 170 | 63.4 | 13.2 | 469 | 590 | 13.5 | 633 |  | 
CCCC1=NC2(CCCC2)C(=O)N1Cc1ccc(-c2cc(-c3cc(C)ccn3)ccc2-c2nn[nH]n2)cc1 [Example 116, 3-((5′-(4-methylpyridin-2-yl)-2′-(2H-tetrazol-5-yl)-[1,1′-biphenyl]-4-yl)methyl)-2-propyl-1,3-diazaspiro[4.4]non-1-en-4-one] | 14.1 | 42.1 | 15.1 | 39.7 |  | 27.7 | 14.7 | 81.9 | 17.2
